ChEMBL document CHEMBL3407483, “Novel 3-nitrotriazole-based amides and carbinols as bifunctional antichagasic agents” (J Med Chem, 2015)
pIC50, pKd: −log10 of the molar value. The source made the active and inactive calls. No cut-off for these calls is given here.

Experiments:
[1] = Selectivity index, ratio of IC50 for rat L6 cells to IC50 for amastigote stage of Trypanosoma cruzi Tulahuen C4 infected in rat L6 cells; assay type: toxicity, cell-based; details: read-out: Ratio IC50
L6 = experiment: Cytotoxicity against rat L6 cells assessed as growth inhibition after 72 hrs by Alamar Blue assay; assay type: cell-based; details: L6, 72 h
Trypanosoma cruzi [2] = experiment: Antitrypanosomal activity against amastigote stage of Trypanosoma cruzi Tulahuen C4 infected in rat L6 cells assessed as parasite growth inhibition after 96 hrs by colorimetric analysis; assay type: functional, organism-based; details: Tulahuen C4, L6, 96 h
[3] = tested on: Trypanosoma brucei rhodesiense; experiment: Antitrypanosomal activity against trypomastigote stage of Trypanosoma brucei rhodesiense STIB 900 assessed as parasite growth inhibition after 72 hrs by Alamar Blue assay; assay type: functional, organism-based; details: STIB 900, 72 h
Trypanosoma brucei = experiment: Activity of his-tagged recombinant Trypanosoma brucei type-1 nitroreductase assessed as oxidized NADH level per mg of protein after 5 mins by absorption spectrum analysis
Trypanosoma cruzi [4] = experiment: Activity of his-tagged recombinant Trypanosoma cruzi type-1 nitroreductase assessed as oxidized NADH level per mg of protein after 5 mins by absorption spectrum analysis
Trypanosoma cruzi [5] = experiment: Antichagasic activity against trypomastigote stage of Trypanosoma cruzi Brazil infected in Balb/c mouse assessed as parasite index at 15 mg/kg/day, ip measured after 5 days by luciferase reporter gene assay; assay type: functional; details: route intraperitoneal
Trypanosoma cruzi [6] = experiment: Antichagasic activity against trypomastigote stage of Trypanosoma cruzi Brazil infected in Balb/c mouse assessed as reduction of parasite index at 15 mg/kg/day, ip measured after 10 days by luciferase reporter gene assay relative to control; assay type: functional; parameters: scale not given: the % may be the effect or the level left; details: route intraperitoneal
Mus musculus [7] = experiment: Toxicity in Balb/c mouse at 15 mg/kg/day, ip measured after 5 to 10 days; assay type: organism-based; parameters: route intraperitoneal; details: in vivo
[8] = Selectivity index, ratio of IC50 for rat L6 cells to IC50 for trypomastigote stage of Trypanosoma brucei rhodesiense STIB 900; assay type: toxicity, cell-based; details: read-out: Ratio IC50
[9] = biological target: Sterol 14-alpha demethylase (Trypanosoma cruzi (strain CL Brener), UniProt Q7Z1V1); experiment: Binding affinity to recombinant full-length Trypanosoma cruzi CYP51 by UV-spectrophotometric analysis; details: read-out: Kd(app)
Sequence of Sterol 14-alpha demethylase (Q7Z1V1 whole entry): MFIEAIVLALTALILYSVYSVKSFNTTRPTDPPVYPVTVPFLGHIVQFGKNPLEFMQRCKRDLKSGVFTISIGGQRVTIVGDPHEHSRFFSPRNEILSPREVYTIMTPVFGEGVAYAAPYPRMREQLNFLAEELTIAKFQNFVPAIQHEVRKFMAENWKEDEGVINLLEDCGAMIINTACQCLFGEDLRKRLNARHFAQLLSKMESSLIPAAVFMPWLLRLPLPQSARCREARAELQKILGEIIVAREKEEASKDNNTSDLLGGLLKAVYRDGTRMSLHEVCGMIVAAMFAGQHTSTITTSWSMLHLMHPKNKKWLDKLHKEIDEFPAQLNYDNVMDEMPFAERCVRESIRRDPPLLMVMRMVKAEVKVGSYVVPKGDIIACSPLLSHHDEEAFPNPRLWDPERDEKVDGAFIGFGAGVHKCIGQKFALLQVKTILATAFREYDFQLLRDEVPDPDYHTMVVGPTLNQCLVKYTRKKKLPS

[10] = Metabolic stability in human microsomes assessed as compound remaining at 1 uM after 60 mins by LC/MS/MS analysis in absence of NADPH; assay type: ADME, Microsome; details: read-out: Stability
[11] = Metabolic stability in mouse microsomes assessed as compound remaining at 1 uM after 60 mins by LC/MS/MS analysis in absence of NADPH; assay type: ADME, Microsome; details: read-out: Stability
[12] = Metabolic stability in human microsomes assessed as compound remaining at 1 uM after 60 mins by LC/MS/MS analysis in presence of NADPH; assay type: ADME, Microsome; details: read-out: Stability
[13] = Metabolic stability in mouse microsomes assessed as compound remaining at 1 uM after 60 mins by LC/MS/MS analysis in presence of NADPH; assay type: ADME, Microsome; details: read-out: Stability
[14] = Apparent permeability across apical to basolateral side in human Caco2 cells at 10 uM after 2 hrs by LC/MS/MS analysis; assay type: ADME, cell-based; details: caco-2, 2 h
Trypanosoma cruzi [15] = experiment: Potency index, ratio of benznidazole IC50 to compound IC50 for amastigote stage of Trypanosoma cruzi Tulahuen C4 infected in rat L6 cells; assay type: functional
Trypanosoma cruzi [16] = experiment: Antichagasic activity against trypomastigote stage of Trypanosoma cruzi Brazil infected in Balb/c mouse assessed as reduction of parasite index at 13 mg/kg/day, ip measured after 10 days by luciferase reporter gene assay relative to control; assay type: functional; parameters: scale not given: the % may be the effect or the level left; details: route intraperitoneal
Trypanosoma cruzi [17] = experiment: Antichagasic activity against trypomastigote stage of Trypanosoma cruzi Brazil infected in Balb/c mouse assessed as reduction of parasite level at 13 mg/kg/day, ip measured after 5 days by luciferase reporter gene assay; assay type: functional, organism-based
Mus musculus [18] = experiment: Toxicity in Balb/c mouse at 13 mg/kg/day, ip measured after 5 to 10 days; assay type: organism-based; parameters: route intraperitoneal; details: in vivo
[19] = tested on: Trypanosoma brucei brucei; experiment: Antitrypanosomal activity against bloodstream form of Trypanosoma brucei brucei overexpressing type-1 nitroreductase; assay type: functional, organism-based
[20] = tested on: Trypanosoma brucei brucei; experiment: Selectivity ratio of IC50 for bloodstream form of Trypanosoma brucei brucei to IC50 for bloodstream form of Trypanosoma brucei brucei overexpressing type-1 nitroreductase; assay type: functional
[21] = tested on: Trypanosoma brucei brucei; experiment: Antitrypanosomal activity against bloodstream form of Trypanosoma brucei brucei; assay type: functional, organism-based
Trypanosoma cruzi [22] = experiment: Antichagasic activity against trypomastigote stage of Trypanosoma cruzi Brazil infected in Balb/c mouse assessed as reduction of parasite level at 15 mg/kg/day, ip measured after 5 days by luciferase reporter gene assay; assay type: functional, organism-based

| SMILES | selectivity ratio [1] | pIC50 (L6) | pIC50 (Trypanosoma cruzi [2]) | pIC50 [3] | selectivity ratio [8] | other results |
| --- | --- | --- | --- | --- | --- | --- |
| Cc1ccc(S(=O)(=O)NC(Cc2ccccc2)Cn2cnc([N+](=O)[O-])n2)cc1 (centres undefined) | 428 | 3.84 | 6.47 | 4.94 |  |  |
| O=C(Cn1ccnc1[N+](=O)[O-])NCc1ccccc1 [BENZNIDAZOLE] |  |  |  |  |  | Activity (Trypanosoma brucei): 1540 nmol/min; Activity (Trypanosoma cruzi [4]): 680 nmol/min; Activity (Trypanosoma cruzi [5]): 13.38; Activity (Trypanosoma cruzi [6]): <4%; Activity (Mus musculus [7]): Non-toxic |
| O=C(Cn1cnc([N+](=O)[O-])n1)c1ccc(F)cc1F | 206 | 3.61 | 5.92 | 4.47 |  |  |
| O=C(Cn1cnc([N+](=O)[O-])n1)Nc1nnc(-c2ccc(Cl)cc2)s1 | > 16.5 | < 3.56 | 4.78 | 4.13 |  |  |
| OC(Cn1cncn1)(Cn1cncn1)c1ccc(F)cc1F [FLUCONAZOLE] |  | < 3.53 | 5.00 |  |  |  |
| CC(O)(Cn1cnc([N+](=O)[O-])n1)c1ccc(-c2ccccc2)cc1 (centres undefined) | 844 | 4.07 | 6.99 | 5.96 | 78.9 |  |
| O=C(Cn1cnc([N+](=O)[O-])n1)Nc1nc(-c2ccc(Cl)cc2)cs1 | 973 | 4.01 | 6.99 | 5.39 | 24 |  |
| O=[N+]([O-])c1ncn(CC(O)(Cn2cncn2)c2ccc(F)cc2F)n1 (centres undefined) | 220 | 3.59 | 5.93 | 4.57 |  | Activity (Trypanosoma brucei): 3060 nmol/min; Activity (Trypanosoma cruzi [4]): 1180 nmol/min; Activity (Trypanosoma cruzi [5]): 24.9; Activity (Trypanosoma cruzi [6]): <4%; Activity (Mus musculus [7]): Non-toxic; pKd [9]: 6.22 |
| O=C(Cn1ccnc1[N+](=O)[O-])c1ccc(-c2ccccc2)cc1 |  | 5.01 | 4.85 | 4.12 |  |  |
| O=[N+]([O-])c1ncn(CC(O)(Cn2cncn2)c2ccc(-c3ccccc3)cc2)n1 (centres undefined) | 3810 | 3.90 | 7.48 | 5.54 | 44 | remaining at 1 h, 1 µM [10]: 106%; Activity (Trypanosoma brucei): 2680 nmol/min; Activity (Trypanosoma cruzi [4]): 1160 nmol/min; Activity (Trypanosoma cruzi [5]): 42.04; remaining at 1 h, 1 µM [11]: 102%; Activity (Trypanosoma cruzi [6]): <4%; Activity (Mus musculus [7]): Non-toxic; remaining at 1 h, 1 µM [12]: 90.7%; pKd [9]: 7.64; remaining at 1 h, 1 µM [13]: 77.6%; Papp [14]: 16.5 ×10⁻⁶ cm/s; Ratio IC50 (Trypanosoma cruzi [15]): 68 |
| O=C(Cn1ccnc1[N+](=O)[O-])Nc1nc(-c2ccc(F)c(F)c2)cs1 | 15.6 | 4.21 | 5.40 | 5.00 |  |  |
| CC(O)(Cn1cncn1)c1ccc(-c2ccccc2)cc1 (centres undefined) | 162 | 3.94 | 6.15 | 4.18 | 1.74 |  |
| Fc1ccc(C2(Cn3cncn3)Cn3ccnc3O2)c(F)c1 (centres undefined) | > 49.4 | < 3.54 | 5.24 | 3.66 |  |  |
| CC(O)(Cn1cnc([N+](=O)[O-])n1)c1ccc(-n2ccnc2)cc1 (centres undefined) | > 97 | < 3.50 | 5.48 | 5.74 | > 173 | Activity (Trypanosoma brucei): 3460 nmol/min; Activity (Trypanosoma cruzi [4]): 1070 nmol/min |
| Cc1nc(-c2cccc(NC(=O)Cn3cnc([N+](=O)[O-])n3)c2)cs1 | 122 | 4.17 | 6.26 | 5.15 | 10 |  |
| O=C(Cn1cnc([N+](=O)[O-])n1)Nc1ccc(-c2ccc(Cl)cc2)cc1 | 2800 | 3.90 | 7.35 | 6.05 | 140 | Activity (Trypanosoma cruzi [16]): <4%; Activity (Trypanosoma cruzi [17]): Active; Activity (Mus musculus [18]): Non-toxic; Ratio IC50 (Trypanosoma cruzi [15]): 45 |
| O=C(Cn1cnc([N+](=O)[O-])n1)c1ccc(-c2ccccc2)cc1 | 1160 | 3.66 | 6.73 | 5.76 | 125 |  |
| O=C(Cn1cnc([N+](=O)[O-])n1)Nc1nc(-c2ccc(F)c(F)c2)cs1 | 192 | 4.06 | 6.34 | 4.79 |  |  |
| CC1(c2ccc(-n3ccnc3)cc2)CO1 (centres undefined) |  | 3.56 | 3.73 | 4.12 |  |  |
| CC(O)(Cn1cncn1)c1ccc(-n2ccnc2)cc1 (centres undefined) |  | < 3.43 | 3.80 | 3.81 |  |  |
| O=C(Cn1cncn1)c1ccc(-c2ccccc2)cc1 | 4.9 | 3.95 | 4.64 | 4.29 |  |  |
| O=C(Cn1cnc([N+](=O)[O-])n1)Nc1ccc(N2CCCCC2)cc1 | 186 | 3.99 | 6.26 | 4.77 |  |  |
| N#Cc1ccc(-c2ccc(NC(=O)Cn3cnc([N+](=O)[O-])n3)cc2)cc1 | 1190 | 3.78 | 6.86 | 6.47 | 490 | remaining at 1 h, 1 µM [10]: 84.8%; Activity (Trypanosoma brucei): 3170 nmol/min; Activity (Trypanosoma cruzi [4]): 888 nmol/min; pIC50 [19]: 6.44; remaining at 1 h, 1 µM [11]: 110%; Activity (Trypanosoma cruzi [6]): <4%; Activity (Mus musculus [7]): Non-toxic; Ratio IC50 [20]: 2; remaining at 1 h, 1 µM [12]: 96.8%; remaining at 1 h, 1 µM [13]: 79.4%; pIC50 [21]: 6.08; Activity (Trypanosoma cruzi [22]): Active; Papp [14]: 18.7 ×10⁻⁶ cm/s |
